The results in this text go back to patent US20220000967A1, “SYNTHETIC PEPTIDES INDUCING IMMUNOGENIC CELL DEATH” (SORBONNE UNIVERSITE, priority 2018, published 2022).

One test relates to MOLT-4. The experiment in a line: Loss of mitochondrial transmembrane potential (TMRE). Type of test: cell-based, human. Particulars: PKHB1 CC50, 2h. How it is done: (§1) CEM, MOLT-4 (T-acute lymphoblastic leukemia, T-ALL), and L5178Y-R (murine lymphoblastic T cell line) were obtained from ATCC. Human and murine PBMCs, human CD4+ and CD8+ T cells, and primary lymphoid organ's cells were obtained from healthy individuals. Cells were maintained in RPMI-1640 medium supplemented with 10% of fetal bovine serum, 2 mM L-glutamine, 100 U/mL penicillin-streptomycin (GIBCO by Life Technologies, Grand Island, N.Y., USA), and incubated at 37° C. in a controlled humidified atmosphere with 5% CO2. Cell count was performed using trypan blue (0.4% Sigma-Aldrich), a Neubauer chamber and an optic microscope (Zeiss Primo Star) as proposed by the ATCC's standard protocols. Flow Cytometry. Cell Death Induction, and Inhibition Annexin-V-allophycocyanin (Ann-V-APC 0.1 μg/ml; BD Pharingen, San Jose Calif., USA), propidium iodide (PI, 0.5 μg/ml Sigma-Aldrich), and tetramethylrhodamine ethyl ester (TMRE, 20 nM, Sigma-Aldrich) were used for phosphatidylserine exposure, cell viability, and mitochondrial transmembrane potential (UΨm) quantification, respectively, in a BD AccuryC6 flow cytometer (BD Biosciences) (total population 10,000 cells). Data were analyzed using FlowJo software. 1×10^6 cells/mL were treated for 2h with PKHB1 (as indicated). […]

Another test deals with CEM. The test is described as above. Type of test: cell-based, human. The note with it: PKHB1 CC50, 2h. On the procedure:
as §1

Another test relates to L5178Y-R tumor. The experiment in a line: PKHB1 treatment of L5178Y-R tumor-bearing mice. Format: in vivo, BALB/c mice. How it is done:
The heparinized blood acquired from mice, was assessed using the Automatic Hematology Analyzer KontroLab. Blood smears were performed and fixed with methanol, stained with Wright's, and observed under the microscope to perform differential blood white cells counts.
Six-to-eight-week-old BALB/c female mice were maintained in controlled environmental conditions (25° C. and 12h light/dark cycle) and were supplied with rodent food (Science diet) and water ad libitum. • Prophylactic vaccinations: L5178Y-R cells (1.5, 3, 5×10^6) were treated with 300 μM of PKHB1 (CC100) for 2h. Cell death was confirmed using trypan blue staining and flow cytometry. Treated cells were inoculated subcutaneously in 100 μl PBS into the left hind of the leg, whereas 2×10^6 untreated control cells were inoculated into the right hind 7 days later (42). • Tumor establishment and measurement: Tumor was established by the subcutaneous injection of 1×10^6 L5178Y-R cells in 100 μL PBS, into the left hind of the leg. Tumor volume and weight were measured three times per week using a caliper (Digimatic Caliper Mitutoyo Corporation, Japan) and a digital scale (American Weigh Scale-600-BLK, USA). When the tumor reached 100 mm^3 the first PKHB1 injection (200 μg) was applied (day 0). Tumor volume was determined with the formula: tumor volume (mm3)=[…]*A*B*C. Long-term memory assay: Mice in complete remission after PKHB1 treatment, were rechallenged with 2×10^6 cells in 100 μL of PBS, into the opposite limb, and tumor volume was measured like described above.
Tissues and organs were obtained and fixed in 10% neutral formalin, embedded in paraffin, sectioned (5 µm thickness) and stained with H&E (Sigma-Aldrich, St Louis, Mo., USA). Histopathological analysis was done by an external veterinarian pathologist (National professional certificate 2593012). Immunohistochemistry was done using the appropriate primary antibody (CD4/CD8) and adding the biotinylated secondary antibody. Finally, hematoxylin-counterstained slides are coverslipped using resin as mounting solution and observed under microscopy.

[1] abbreviates: PKHB1-treated vs untreated tumor-bearing mice, trypan blue count.

Regarding `CSCC[C@H](NC(=O)[C@@H](NC(=O)[C@@H](NC(=O)[C@H](Cc1ccc(O)cc1)NC(=O)[C@H](Cc1ccccc1)NC(=O)[C@H](CCCNC(=N)N)NC(=O)[C@H](N)CCCCN)C(C)C)C(C)C)C(=O)N[C@@H](Cc1c[nH]c2ccccc12)C(=O)N[C@@H](CCCCN)C(=O)N[C@H](CCCCN)C(=O)O` [PKHB1, (D)K-R-F-Y-V-V-M-W-K-(D)K], the “loss of mitochondrial membrane potential” value in the test with MOLT-4 is recorded as 61%±4. Also, in the test on CEM, the “loss of mitochondrial membrane potential” value was 49%±5. Besides, the “tumor histology (H&E), leukocyte infiltration” value in the test with L5178Y-R tumor (200 μg PKHB1 intraperitoneally weekly, day 18) was “contained a mixture of lymphocytes and polymorphonuclear cells”. Further, the tumor regression result in the test on L5178Y-R tumor (200 μg PKHB1 intraperitoneally weekly, day 30) is given as “complete tumor regression in most of the mice”. For the same compound, the “immunohistochemistry of tumor sections, CD4+ and CD8+ cells” value with L5178Y-R tumor (PKHB1-treated tumor-bearing mice) is “presence of CD4+ and CD8+ cells”. Also, in the test with L5178Y-R tumor (PKHB1-treated tumor-bearing mice vs healthy mice), the WBC differential result is on record as “no significant difference”. In addition, in the test with L5178Y-R tumor (setting [1]), the “cell number of BM, spleen and thymus cells” value is “significant increase”; the “cell number of lymph nodes” value is recorded as “significant decrease”.
